# According to PMC7679302 (Environmental Science and Pollution Research International, 2020):
# Marks after values point to notes of the source that are not given here.
# Legend:
# [1] = tested on: juvenile mussels L. siliquoidea; test: 21 d range-finding sediment test, juvenile mussels; format: in vivo
# Experimental: (§1) Range-finding tests of 21 d were completed with juvenile mussels, amphipods and mayflies to assist with the selection of the concentrations to be used in final testing. Nominal concentrations in range-finding tests were 0.1, 1, 10, 100, and 1000 mg/kg, based on dry weight of sediment. Range-finding test conditions were identical to those described in the manuscript for chronic sediment tests with the exception of test duration.
# After 21 d, mussels were recovered and transferred to Petri dishes filled with clean sand and housed in large trays of aerated culture water to assess burial ability.
# [2] = Acute 48 h aqueous toxicity test with glochidia (viability); format: in vivo, Lampsilis siliquoidea; details: Lampsilis siliquoidea, in vivo, other: aqueous (water-only) exposure, 48-h aqueous exposure, n = 4, read-out: Viability (mean, % (standard deviation))
# Source text: (§2) Aqueous acute toxicity tests were based on the American Society for Testing and Materials (ASTM [2013]) protocols for conducting toxicity tests with early life stages of freshwater mussels. Gravid female L. siliquoidea were collected from an established reference site in the Maitland River (ON) and kept in ECCC’s Aquatic Life Research Facility (Canada Centre for Inland Waters, Burlington, ON). Glochidia were removed from gravid females and their viability (i.e., ability to close their valves) was assessed. Glochidia from a minimum of three gravid mussels whose glochidia exceeded 90% viability were pooled and exposed to a geometric series of nominal concentrations (0, 0.0025, 0.025, 0.25, 2.5, 25 mg/L) of either FIN or MGA plus a solvent control. Tests were conducted in 250-mL glass beakers (unaerated and unfed) with culture water. After 24 and 48 h of exposure, glochidia viability was assessed in a minimum of 100 glochidia per replicate (four replicates). Water samples were collected at the beginning and end of the tests, and frozen pending chemical analysis.
# [3] = tested on: Lampsilis siliquoidea glochidia; test: as above; format: in vivo; details: for Viability (mean, % (standard deviation)): 48-h aqueous exposure, n = 4
# Source text: as §2
# mayfly Hexagenia spp. [4] = details: Hexagenia spp. (mixture of H. rigida and H. limbata), in vivo, 42 days, pH 8.3
# Experimental: (§3) Nominal concentrations were 10, 30, 100, 300, and 1000 mg/kg for juvenile freshwater mussels and 3, 10, 30, 100, and 300 mg/kg for amphipods and mayflies, and were based on the results of range-finding tests (detailed in Supplementary Materials). […] For each PPCP, the concentration of solvent used was consistent across treatments.
# (§4) The sediments were mixed for 24 h, left open in a fume hood for 3–5 days for the acetone to evaporate, and then stored at 4 °C until use. […] All beakers were aerated for 1 week under testing conditions prior to the addition of organisms, and throughout the tests. Duration of toxicity tests varied depending on the species and endpoint of interest (see below). Water quality parameters were collected for each test (Table S1).
# (§5) Briefly, eggs of Hexagenia spp. […] Prior to testing, eggs were hatched and nymphs were grown in aerated 20-L aquaria containing culture sediment (depth: 2.5 cm) and culture water (depth: 10 cm) for 6 to 7 weeks.
# (§6) Ten mayflies (5–8 mg wet weight) were added to each beaker (three replicates for each control and PPCP concentration). Two tests were conducted for each compound. […] At the end of the test, mayflies were removed and surviving animals from each of the three replicates were counted and weighed.
# [5] = natural and simulated sunlight; ref Qu et al. [2012]; cited from earlier work
# amphipods H. azteca = test: 21 d range-finding sediment test, amphipods; format: in vivo, Hyalella azteca; details: n = 3
# Experimental: as §1
# Amphipods were fed 2.5 mg Tetra-min twice per week during weeks one and two, and three times during week three. At the end of the test, amphipods were removed and the survivors were counted and weighed.
# [6] = tested on: goldfish (Carassius auratus); set-up: method as in Upjohn Company [1996]; details: 1 mg/L MGA for 21 days; ref Upjohn Company [1996]; cited from earlier work
# [7] = tested on: African clawed frog (Xenopus laevis) larvae; set-up: method as in Finch et al. [2013]; details: chronic exposure to 100 ng/L MGA; ref Finch et al. [2013]; cited from earlier work
# mayflies Hexagenia spp. = test: 21 d range-finding sediment test, mayflies; format: in vivo; details: n = 3
# Experimental: as §1
# At the end of the test, survival and wet weight of mayflies in each replicate were recorded.
# mayfly Hexagenia spp. [8] = test: Chronic 42-day sediment test with mayflies (survival, growth); details: measured, n = 6
# Experimental: as §3, §4, §5, §6
# amphipod Hyalella azteca = test: Chronic 42-day sediment test with amphipods (survival, growth, reproduction, sex ratio)
# Experimental: Dechlorinated municipal tap water was used for cultures and toxicity tests. Both cultures and toxicity tests were held at 25 °C with a photoperiod of 16 h light:8 h dark, and amphipods were fed finely ground Tetra-Min fish food flakes (Tetra GMBH, Melle, Germany). Juvenile amphipods were removed weekly from breeding containers and used in toxicity tests.
# Two tests were conducted for each compound. Amphipods were fed ground Tetra-Min twice per week during weeks 1 and 2, three times during week 3, and 5 mg three times per week during weeks 4 to 6. Surviving adults were counted, weighed as a group, and examined under a dissecting microscope to identify males (enlarged second gnathopods) and females, and the number of juveniles was recorded.
# D. magna [9] = details: ref Minguez et al. ([2014]); cited from earlier work
# [10] = tested on: glochidia of L. siliquoidea; set-up: method as in Gilroy et al. ([2017]); details: ref Gilroy et al. ([2017]); cited from earlier work
# juvenile L. siliquoidea = tested on: juvenile L. siliquoidea; set-up: method as in Gilroy et al. ([2017]); details: ref Gilroy et al. ([2017]); cited from earlier work
# D. magna [11] = tested on: D. magna; set-up: method as in Haeba et al. [2008]; details: ref Haeba et al. [2008], cited from earlier work
# [12] = 0.1 mg/kg dry weight nominal, n = 3
# [13] = 1 mg/kg dry weight nominal, n = 3
# [14] = 10 mg/kg dry weight nominal, n = 3
# [15] = 100 mg/kg dry weight nominal, n = 3
# [16] = Hyalella azteca, in vivo, 42 days, pH 8.3
structure (smiles),measurement,setting,value
C=C1C[C@H]2[C@@H]3C=C(C)C4=CC(=O)CC[C@]4(C)[C@H]3CC[C@]2(C)[C@@]1(OC(C)=O)C(C)=O [Melengestrol acetate],"Burial (%), mean (SEM)",[1]; [12],85 (4.8) %
same,"Survival (%), mean (SEM)",[1]; [12],93 (3.3) %
same,"Burial (%), mean (SEM)",[1]; [13],97 (7.0) %
same,"Survival (%), mean (SEM)",[1]; [13],97 (3.3) %
same,"Burial (%), mean (SEM)",[1]; [14],90(5.8) %
same,"Survival (%), mean (SEM)",[1]; [14],97 (3.3) %
same,"Burial (%), mean (SEM)",[1]; [15],90 (0.0) %
same,"Survival (%), mean (SEM)",[1]; [15],100 (0.0) %
same,"Burial (%), mean (SEM)","[1]; 1000 mg/kg dry weight nominal, n = 3",68 (5.8) %
same,"Survival (%), mean (SEM)","[1]; 1000 mg/kg dry weight nominal, n = 3, 1000 mg/kg",77 (8.8) %
same,"viability at 48 h, 0.005 mg/L",[2]; 0.005 mg/L mean measured,86%
same,"viability at 48 h, 0.05 mg/L",[2]; 0.05 mg/L mean measured,82%
same,"viability at 48 h, 0.3 mg/L",[2]; 0.3 mg/L mean measured,85%
same,"viability at 48 h, 1.9 mg/L",[2]; 1.9 mg/L mean measured,82%
same,"viability at 48 h, 4 mg/L",[2]; 4 mg/L mean measured,70%
same,Decrease in viability,"[3]; 4 mg/L MGA, water-only",20%
same,"Viability (mean, % (standard deviation))",[3]; 0.05 mg/L mean measured,82 (2.1)^b %
same,"Viability (mean, % (standard deviation))",[3]; 1.9 mg/L mean measured,82 (3.3)^b %
same,NOEC,"[3]; Lampsilis siliquoidea, in vivo, 48 h",1.9 mg/L^b
same,ChV (geometric mean of NOEC and LOEC),"[3]; viability, acute 48 h",2.8 mg/L
same,"ChV, overlying water",mayfly Hexagenia spp. [4],0.1 mg/L
same,"ChV, sediment",mayfly Hexagenia spp. [4],21 mg/kg
same,"LOEC, overlying water",mayfly Hexagenia spp. [4],0.25 mg/L
same,"LOEC, sediment",mayfly Hexagenia spp. [4],37 mg/kg
same,"NOEC, overlying water",mayfly Hexagenia spp. [4],0.04 mg/L
same,"NOEC, sediment",mayfly Hexagenia spp. [4],12 mg/kg
same,Direct photolysis half-life,[5],approximately 45 min
same,"Growth, mean (SEM)",amphipods H. azteca; 0.1 mg/kg dry weight nominal,1.0 (0.09) mg wet weight
same,"Survival (%), mean (SEM)",amphipods H. azteca; 0.1 mg/kg dry weight nominal,100 (3.8) %
same,"Growth, mean (SEM)",amphipods H. azteca; 1 mg/kg dry weight nominal,1.0 (0.07) mg wet weight
same,"Survival (%), mean (SEM)",amphipods H. azteca; 1 mg/kg dry weight nominal,100 (0.0) %
same,"Growth, mean (SEM)",amphipods H. azteca; 10 mg/kg dry weight nominal,1.1 (0.10) mg wet weight
same,"Survival (%), mean (SEM)",amphipods H. azteca; 10 mg/kg dry weight nominal,95 (2.2) %
same,"Growth, mean (SEM)",amphipods H. azteca; 100 mg/kg dry weight nominal,0.7 (0.15) mg wet weight
same,"Survival (%), mean (SEM)",amphipods H. azteca; 100 mg/kg dry weight nominal,95 (2.2) %
same,"Survival (%), mean (SEM)",amphipods H. azteca; 1000 mg/kg dry weight nominal,0^a (0.0) %
same,Toxicity,[6],No toxicity was observed
same,Larval size (length and weight) vs controls,[7],significantly smaller
same,Mortality or developmental effects,[7],no mortality or developmental effects were observed
same,"Growth, mean (SEM)",mayflies Hexagenia spp.; 0.1 mg/kg dry weight nominal,33 (0.2) mg wet weight
same,"Survival (%), mean (SEM)",mayflies Hexagenia spp.; 0.1 mg/kg dry weight nominal,100 (0.0) %
same,"Growth, mean (SEM)",mayflies Hexagenia spp.; 1 mg/kg dry weight nominal,30 (0.9) mg wet weight
same,"Survival (%), mean (SEM)",mayflies Hexagenia spp.; 1 mg/kg dry weight nominal,97 (3.3) %
same,"Growth, mean (SEM)",mayflies Hexagenia spp.; 10 mg/kg dry weight nominal,31 (1.2) mg wet weight
same,"Survival (%), mean (SEM)",mayflies Hexagenia spp.; 10 mg/kg dry weight nominal,100 (0.0) %
same,"Growth, mean (SEM)",mayflies Hexagenia spp.; 100 mg/kg dry weight nominal,20^a (0.7) mg wet weight
same,"Survival (%), mean (SEM)",mayflies Hexagenia spp.; 100 mg/kg dry weight nominal,100 (0.0) %
same,"Growth, mean (SEM)",mayflies Hexagenia spp.; 1000 mg/kg dry weight nominal,7.4^a (0.24) mg wet weight
same,"Survival (%), mean (SEM)",mayflies Hexagenia spp.; 1000 mg/kg dry weight nominal,37^a (8.8) %
same,"Survival (percent of initial animals added), mean (SEM)",mayfly Hexagenia spp. [8]; melengestrol acetate 1 mg/kg dw sediment (0.002 mg/L water),95 (2.2) %
same,"Survival (percent of initial animals added), mean (SEM)",mayfly Hexagenia spp. [8]; melengestrol acetate 12 mg/kg dw sediment (0.04 mg/L water),90 (2.6) %
same,"Survival (percent of initial animals added), mean (SEM)",mayfly Hexagenia spp. [8]; melengestrol acetate 37 mg/kg dw sediment (0.25 mg/L water),93 (2.1) %
same,"Survival (percent of initial animals added), mean (SEM)",mayfly Hexagenia spp. [8]; melengestrol acetate 76 mg/kg dw sediment (0.5 mg/L water),92 (4.0) %
same,"ChV, sediment",amphipod Hyalella azteca; [16],53 mg/kg
same,"LOEC, overlying water",amphipod Hyalella azteca; [16],0.5 mg/L
same,"LOEC, sediment",amphipod Hyalella azteca; [16],76 mg/kg
same,"NOEC, overlying water",amphipod Hyalella azteca; [16],0.25 mg/L
same,"Females (percent of surviving amphipods), mean (SEM)","amphipod Hyalella azteca; melengestrol acetate 76 mg/kg dw sediment (0.5 mg/L water), measured, 42-day, n = 10",60 (4.5) %
same,"NOEC, sediment","amphipod Hyalella azteca; survival, growth, 42-day, dry weight sediment, measured",37 mg/kg
CN(C)CCC=C1c2ccccc2CCc2ccccc21 [amitriptyline],48-h EC50,D. magna [9],4.8 mg/L
same,24-h LC50,[10],0.3 mg/L
same,14-day LC50,juvenile L. siliquoidea,0.4 mg/L
CC(C)C(=O)Nc1ccc([N+](=O)[O-])c(C(F)(F)F)c1 [flutamide],Effect on maturation and embryonic development,D. magna [11]; concentrations up to 1 mg/L,delayed the maturation of female D. magna and inhibited the embryonic development of neonates
same,48-h EC50 for immobilization,D. magna [11],2.7 mg/L
CN[C@H]1CC[C@@H](c2ccc(Cl)c(Cl)c2)c2ccccc21 [sertraline],24-h LC50,[10],0.06 mg/L
same,28-day LC50,juvenile L. siliquoidea,0.04 mg/L
